Results from patent US8716493B2, “Multicyclic compounds and the use thereof” (Cephalon, Inc., priority 2000, dated 2014).

Columns and labels:
[1] = target: T1, human VEGFR2 cytoplasmic domain (Homo sapiens, UniProt P35968); test: Measurement of VEGFR2 kinase enzymatic activity (time-resolved fluorescence, PLC-γ/GST substrate); type: biochemical; conditions: Table 5; for VEGFR2 % @ 300 nM: percent inhibition at 300 nM
T1 construct: recombinant human baculovirus-expressed human VEGFR2 cytoplasmic domain; host or cells: baculovirus-expressed
T1 sequence (P35968 786-1356 limits assumed): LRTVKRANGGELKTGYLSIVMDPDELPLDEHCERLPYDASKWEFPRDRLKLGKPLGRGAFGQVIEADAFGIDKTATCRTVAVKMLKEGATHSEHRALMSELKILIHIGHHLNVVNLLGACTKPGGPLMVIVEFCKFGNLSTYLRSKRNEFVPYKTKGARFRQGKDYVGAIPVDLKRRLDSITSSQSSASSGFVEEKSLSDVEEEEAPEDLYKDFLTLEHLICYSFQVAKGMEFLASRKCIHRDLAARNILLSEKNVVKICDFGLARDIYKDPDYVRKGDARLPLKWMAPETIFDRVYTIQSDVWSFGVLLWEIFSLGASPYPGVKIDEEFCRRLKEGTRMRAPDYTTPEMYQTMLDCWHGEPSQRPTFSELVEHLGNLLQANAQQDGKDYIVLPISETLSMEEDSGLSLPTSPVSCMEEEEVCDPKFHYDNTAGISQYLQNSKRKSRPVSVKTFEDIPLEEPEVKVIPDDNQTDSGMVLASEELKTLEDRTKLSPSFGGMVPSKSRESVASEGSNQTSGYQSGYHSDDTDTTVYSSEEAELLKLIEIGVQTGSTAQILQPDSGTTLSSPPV
Protocol: A 96-well FluoroNUNC MaxiSorp plate was coated with 100 μL/well of recombinant human PLC-γ/GST substrate solution at a concentration of 40 μg/mL in Tris-buffered saline (TBS). The VEGFR2 activity was assayed in a 100 μL assay mixture containing 50 mM HEPES (pH 7.4), 30 μM ATP, 10 mM MnCl2, 0.1% BSA, 2% DMSO, and 150 ng/mL recombinant human baculovirus-expressed human VEGFR2 cytoplasmic domain (prephosphorylated for 60 min at 4° C. in the presence of 30 μM ATP and 10 mM MnCl2 prior to use). The kinase reaction was allowed to proceed at 37° C. for 15 min. The europium-labeled anti-phosphotyrosine detection antibody was added at 1:5000 dilution in block buffer (3% BSA in TBST). After 1 hour of incubation at 37° C., 100 μL of enhancement solution (Wallac #1244-105) was added and the plate was gently agitated. After 5 min, the time-resolved fluorescence of the resulting solution was measured using the BMG PolarStar (Model #403) using excitation and emission wavelengths of 340 nm and 615 nm, respectively, a collection delay of 400 μsec and an integration time of 400 μsec.
(§1) Single-point inhibition data were calculated by comparing PARP, VEGFR2, or MLK3 activity in the presence of inhibitor to activity in the presence of DMSO only. Inhibition curves for compounds were generated by plotting percent inhibition versus log10 of the concentration of compound. IC50 values were calculated by nonlinear regression using the sigmoidal dose-response (variable slope) equation in GraphPad Prism as follows: y=bottom+(top−bottom)/(1+10^(log IC50^−x)*Hillslope) where y is the % activity at a given concentration of compound, x is the logarithm of the concentration of compound, bottom is the % inhibition at the lowest compound concentration tested, and top is the % inhibition at the highest compound concentration examined. The values for bottom and top were fixed at 0 and 100, respectively. IC50 values were reported as the average of at least three separate determinations.
The following Examples 5 to 10 present PARP, VEGFR2, and MLK3 inhibiting data for compounds of the present invention. […] For some compounds, inhibiting data is presented as percent inhibition at a specified concentration. Compounds are tabulated together with compound number, substituents, and enzyme inhibition data.

[2] = target: T2, MLK3 (Homo sapiens, UniProt Q16584); test: Measurement of MLK3 enzymatic activity (32P phosphorylation of myelin basic protein); type: biochemical; conditions: percent inhibition at 1 μM; Table 5
T2 construct: 2 μg/mL of baculoviral human GST-MLK1 kinase domain; GST (N); host or cells: baculovirus expression
T2 sequence (Q16584 117-379 limits assumed): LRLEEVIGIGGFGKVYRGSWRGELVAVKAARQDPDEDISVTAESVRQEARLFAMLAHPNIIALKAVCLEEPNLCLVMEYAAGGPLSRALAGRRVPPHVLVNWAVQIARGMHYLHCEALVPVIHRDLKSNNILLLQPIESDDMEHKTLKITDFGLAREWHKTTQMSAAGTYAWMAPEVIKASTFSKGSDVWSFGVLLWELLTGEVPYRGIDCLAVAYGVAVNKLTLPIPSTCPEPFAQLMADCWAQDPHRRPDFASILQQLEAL
Protocol: The activity assay for MLK3 was performed in Millipore Multiscreen plates. Each 50 μL assay mixture contained 50 mM HEPES (pH 7.0), 1 mM EGTA, 10 mM MgCl2, 1 mM DTT, 25 mM β-glycerophosphate, 100 μM ATP, 1 μCi [γ-^32P]ATP, 0.1% BSA, 500 μg/mL myelin basic protein, 2% DMSO, various concentrations of test compounds, and 2 μg/mL of baculoviral human GST-MLK1 kinase domain. Samples were incubated for 15 min at 37° C. The reaction was stopped by adding ice-cold 50% TCA and the proteins were allowed to precipitate for 30 min at 4° C.
as §1
For some compounds, inhibiting data is presented as percent inhibition at a specified concentration. Compounds are tabulated together with compound number, substituents, and enzyme inhibition data.

[3] = tested on: rat model of focal cerebral ischemia; conditions: i.p. 10 mg/kg two hours prior to and two hours after initiation of ischemia; cited from earlier work
[4] = tested on: mouse MCA occlusion (suture thread method); conditions: mice; intracerebroventricular administration; two hour MCA occlusion; cited from earlier work
[5] = tested on: suture occlusion model of focal ischemia; conditions: rat; 10 mg/kg; cited from earlier work

Molecule: Cn1c2ccccc2c2c3c(c4c(c21)CCCC4)C(=O)NC3=O [Compound 11d]
- IC50 [1]: 778 nM
- MLK3 % @ 1 μM [2]: 52%

Molecule: O=C1NCCc2c(OCCCCN3CCCCC3)cccc21 [DPQ, 3,4-dihydro-5-[4-(1-piperidinyl)butoxy]-1(2H)-isoquinolinone]
- reduction in infarct volume [3]: 54%

Molecule: O=C1NC(=O)c2c1c1c(c3[nH]c4ccccc4c23)CCO1 [Compound 11f, 5,7,10,11-Tetrahydrofuran[a-3,2]pyrrolo[3,4-c]carbazole-5(6H), 7(9H)-dione]
- VEGFR2 % @ 300 nM [1]: 3%
- MLK3 % @ 1 μM [2]: 62%

Molecule: O=C1NCc2c3c(c4[nH]c5ccccc5c4c21)CCC3 [Compound 11a, 5,7,8,9,10,11-Hexahydrocyclopent[a]pyrrolo[3,4-c]carbazole-5(6H)-one]
- IC50 [1]: 477 nM

Molecule: O=C1NC(=O)c2c1c1cnccc1c1[nH]c3ccccc3c21 [Compound 12a]
- IC50 [1]: 235 nM
- MLK3 % @ 1 μM [2]: 74%

Molecule: O=C1NC(=O)c2c1c1occc1c1[nH]c3ccccc3c21 [Compound 11g, 5,7-Dihydrofuran[a-3,2]pyrrolo[3,4-c]carbazole-5(6H), 7(11H)-dione]
- VEGFR2 % @ 300 nM [1]: 8%
- MLK3 % @ 1 μM [2]: 16%

Molecule: O=C1NC(=O)c2c1c1c(c3[nH]c4ccccc4c23)CCCC1 [Compound 11b, 5,7,9,10,11,12-Hexahydrocyclohexano[a]pyrrolo[3,4-c]carbazole-5(6H), 7(8H)-dione]
- IC50 [1]: 698 nM
- MLK3 % @ 1 μM [2]: 26%

Molecule: NC(=O)c1cccc(N)c1 [Compound 3-AB, 3-aminobenzamide]
- decrease in infarct volume [4]: 47%
- infarct volume [5]: significantly reduced

Molecule: 9-Ethyl-8-propyl-5,7-dihydropyrrolo[3,4-c]carbazole-5(6H), 7(10H)-dione [Compound 11c]
- VEGFR2 % @100 nM ([1]; percent inhibition at 100 nM): 0% @100 nM
- MLK3 % @ 1 μM [2]: 46%

Molecule: O=C1NC(=O)c2c1c1ccccc1c1[nH]c3ccccc3c21 [Compound 11e]
- IC50 [1]: 166 nM
- MLK3 % @ 1 μM [2]: 35%
